Assay results taken from patent US10597388B2, “Pyridazinone herbicides” (FMC CORPORATION, priority 2014, dated 2020).

What was measured:
Test in all cases: Test C greenhouse herbicide test, pre- and postemergence
Assay type in all cases: in vivo
[1] = test system: crabgrass, large (large crabgrass, Digitaria sanguinalis)
Procedure, shortened: (§1)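 Each species was treated both before emergence, in a loam–sand soil mix, and after emergence, as 1- to 4-leaf seedlings in peat-based potting medium. Plants stayed in the greenhouse 13 to 15 d, then were scored from 0 (no effect) to 100 (complete control) relative to controls.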

[2] = test system: nutsedge, yellow (yellow nutsedge, Cyperus esculentus)
Procedure, shortened: as §1

[3] = test system: wheat (winter wheat, Triticum aestivum)
Procedure, shortened: as §1

soybean (Glycine max) = test system: soybean (Glycine max)
Procedure, shortened: as §1

[4] = test system: barnyardgrass (Echinochloa crus-galli)
Procedure, shortened: as §1

[5] = test system: waterhemp (common waterhemp, Amaranthus rudis)
Procedure, shortened: as §1

[6] = test system: ragweed (common ragweed, Ambrosia elatior)
Procedure, shortened: as §1

[7] = test system: foxtail, giant (giant foxtail, Setaria faberii)
Procedure, shortened: as §1

[8] = test system: galium (catchweed bedstraw, Galium aparine)
Procedure, shortened: as §1

[9] = test system: oilseed rape (Brassica napus)
Procedure, shortened: as §1

[10] = test system: lambsquarters (Chenopodium album)
Procedure, shortened: as §1

[11] = test system: johnsongrass (Sorghum halepense)
Procedure, shortened: as §1

[12] = Preemergence, 31 g ai/ha, scale 0 to 100, 0 is no effect, 100 is complete control
[13] = Preemergence, 62 g ai/ha, scale 0 to 100, 0 is no effect, 100 is complete control
[14] = Preemergence, 125 g ai/ha, scale 0 to 100, 0 is no effect, 100 is complete control
[15] = Preemergence, 250 g ai/ha, scale 0 to 100, 0 no effect, 100 complete control
[16] = Postemergence, 31 g ai/ha, scale 0 to 100 (0 no effect, 100 complete control)
[17] = Postemergence, 62 g ai/ha, 0 to 100 scale (0 no effect, 100 complete control)
[18] = Postemergence, 250 g ai/ha, scale 0 to 100, 0 is no effect, 100 is complete control
[19] = postemergence, 125 g ai/ha, scale 0 to 100, 0 no effect, 100 complete control

CC(=O)Oc1c(Cl)nn(C)c(=O)c1-c1c(C)sc2ccc(C(F)(F)F)cc12 [Compound 152]
Plant response rating, Crabgrass, Large [1, 12]: 0
Plant response rating, Crabgrass, Large [1, 13]: 0
Plant response rating, Crabgrass, Large [1, 14]: 10
Crabgrass, Large plant response rating [1, 15]: 10
Plant response rating, Nutsedge, Yellow [2, 12]: 5
Plant response rating, Nutsedge, Yellow [2, 13]: 20
Plant response rating, Nutsedge, Yellow [2, 14]: 55
Nutsedge, Yellow plant response rating [2, 15]: 85
Plant response rating, Wheat [3, 12]: 0
Plant response rating, Wheat [3, 13]: 10
Plant response rating, Wheat [3, 14]: 25
Wheat plant response rating [3, 15]: 85
Plant response rating, Soybean (soybean (Glycine max); [12]): 0
Plant response rating, Soybean (soybean (Glycine max); [13]): 5
Plant response rating, Soybean (soybean (Glycine max); [14]): 5
Soybean plant response rating (soybean (Glycine max); [15]): 10
Plant response rating, Barnyardgrass [4, 12]: 5
Plant response rating, Barnyardgrass [4, 13]: 5
Plant response rating, Barnyardgrass [4, 14]: 30
Barnyardgrass plant response rating [4, 15]: 70
Plant response rating, Waterhemp [5, 12]: 20
Plant response rating, Waterhemp [5, 13]: 85
Plant response rating, Waterhemp [5, 14]: 85
Waterhemp plant response rating [5, 15]: 75
Plant response rating, Ragweed [6, 12]: 85
Plant response rating, Ragweed [6, 13]: 40
Plant response rating, Ragweed [6, 14]: 75
Ragweed plant response rating [6, 15]: 90
Plant response rating, Foxtail, Giant [7, 12]: 0
Plant response rating, Foxtail, Giant [7, 13]: 35
Plant response rating, Foxtail, Giant [7, 14]: 65
Foxtail, Giant plant response rating [7, 15]: 90
Plant response rating, Galium [8, 12]: 50
Plant response rating, Galium [8, 13]: 45
Plant response rating, Galium [8, 14]: 95
Galium plant response rating [8, 15]: 100
Plant response rating, Oilseed Rape [9, 12]: 50
Plant response rating, Oilseed Rape [9, 13]: 85
Plant response rating, Oilseed Rape [9, 14]: 95
Oilseed Rape plant response rating [9, 15]: 100
Plant response rating, Lambsquarters [10, 12]: 50
Plant response rating, Lambsquarters [10, 13]: 75
Plant response rating, Lambsquarters [10, 14]: 90
Lambsquarters plant response rating [10, 15]: 98
Plant response rating, Johnsongrass [11, 12]: 0
Plant response rating, Johnsongrass [11, 13]: 0
Plant response rating, Johnsongrass [11, 14]: 0
Johnsongrass plant response rating [11, 15]: 5

Cc1nn(C)c(=O)c(-c2c([N+](=O)[O-])ccc3ccccc23)c1O [Compound 165]
Plant response rating, Crabgrass, Large [1, 16]: 0
Crabgrass, Large plant response rating [1, 17]: 5
Plant response rating, Crabgrass, Large [1, 18]: 20
Crabgrass, Large plant response rating [1, 19]: 20
Plant response rating, Nutsedge, Yellow [2, 16]: 20
Nutsedge, Yellow plant response rating [2, 17]: 30
Plant response rating, Nutsedge, Yellow [2, 18]: 35
Nutsedge, Yellow plant response rating [2, 19]: 25
Plant response rating, Wheat [3, 16]: 5
Wheat plant response rating [3, 17]: 5
Plant response rating, Wheat [3, 18]: 15
Wheat plant response rating [3, 19]: 10
Plant response rating, Soybean (soybean (Glycine max); [16]): 10
Soybean plant response rating (soybean (Glycine max); [17]): 10
Plant response rating, Soybean (soybean (Glycine max); [18]): 15
Soybean plant response rating (soybean (Glycine max); [19]): 15
Plant response rating, Barnyardgrass [4, 16]: 10
Barnyardgrass plant response rating [4, 17]: 15
Plant response rating, Barnyardgrass [4, 18]: 25
Barnyardgrass plant response rating [4, 19]: 25
Plant response rating, Waterhemp [5, 16]: 65
Waterhemp plant response rating [5, 17]: 70
Plant response rating, Waterhemp [5, 18]: 75
Waterhemp plant response rating [5, 19]: 75
Plant response rating, Ragweed [6, 16]: 40
Ragweed plant response rating [6, 17]: 55
Plant response rating, Ragweed [6, 18]: 85
Ragweed plant response rating [6, 19]: 75
Plant response rating, Foxtail, Giant [7, 16]: 0
Foxtail, Giant plant response rating [7, 17]: 5
Plant response rating, Foxtail, Giant [7, 18]: 25
Foxtail, Giant plant response rating [7, 19]: 15
Plant response rating, Galium [8, 16]: 85
Galium plant response rating [8, 17]: 85
Plant response rating, Galium [8, 18]: 100
Galium plant response rating [8, 19]: 98
Plant response rating, Oilseed Rape [9, 16]: 0
Oilseed Rape plant response rating [9, 17]: 0
Plant response rating, Oilseed Rape [9, 18]: 5
Oilseed Rape plant response rating [9, 19]: 0
Plant response rating, Lambsquarters [10, 16]: 70
Lambsquarters plant response rating [10, 17]: 75
Plant response rating, Lambsquarters [10, 18]: 98
Lambsquarters plant response rating [10, 19]: 85
Plant response rating, Johnsongrass [11, 16]: 0
Johnsongrass plant response rating [11, 17]: 5
Plant response rating, Johnsongrass [11, 18]: 15
Johnsongrass plant response rating [11, 19]: 10
